{"source": "ChEMBL document CHEMBL5226345", "about": "“Lactate dehydrogenase and malate dehydrogenase: Potential antiparasitic targets for drug development studies” (Bioorg Med Chem, 2021)", "key": {"[1]": {"experiment": "Inhibition of Schistosoma LDH; call rule not given here"}, "[2]": {"experiment": "Inhibition of Plasmodium falciparum LDH by ELISA method"}, "[3]": {"experiment": "Inhibition of Plasmodium falciparum MDH"}, "[4]": {"experiment": "Inhibition of recombinant his tagged Cryptosporidium parvum LDH expressed in Escherichia coli by spectrophotometric based assay"}, "[5]": {"experiment": "Inhibition of Toxoplasma gondii LDH2"}, "[6]": {"experiment": "Inhibition of Toxoplasma gondii LDH1"}, "[7]": {"experiment": "Inhibition of Plasmodium falciparum LDH"}, "[8]": {"experiment": "Inhibition of Trichomonas vaginalis LDH"}}, "data": [{"smiles": "O=C(C1CCCCC1)N1CC(=O)N2CCc3ccccc3C2C1", "note": "(stereo not drawn) [PRAZIQUANTEL]", "values": [{"measurement": "IC50", "setting": "[1]", "result": "Not Active"}]}, {"smiles": "CC[C@@H]([C@H](C)O)n1ncn(-c2ccc(N3CCN(c4ccc(OC[C@@H]5CO[C@@](Cn6cncn6)(c6ccc(F)cc6F)C5)cc4)CC3)cc2)c1=O", "note": "[POSACONAZOLE]", "values": [{"measurement": "IC50", "setting": "[2]", "result": 2.6, "unit": "µM"}]}, {"smiles": "CC(C)c1c(C(=O)Nc2ccccc2)c(-c2ccccc2)c(-c2ccc(F)cc2)n1CC[C@@H](O)C[C@@H](O)CC(=O)O", "note": "[ATORVASTATIN]", "values": [{"measurement": "IC50", "setting": "[2]", "result": 13.1, "unit": "µM"}]}, {"smiles": "NC(=O)C(=O)O", "note": "[OXAMATE]", "values": [{"measurement": "IC50", "setting": "[3]", "result": 2.66, "unit": "µM"}]}, {"smiles": "c1ccc2[nH]cnc2c1", "note": "[BENZIMIDAZOLE]", "values": [{"measurement": "IC50", "setting": "[1]", "result": "Not Active"}]}, {"smiles": "O=C1c2ccccc2C(=O)c2c(O)c(O)cc(O)c21", "note": "[PURPURIN]", "values": [{"measurement": "IC50", "setting": "[4]", "result": 46.3, "unit": "µM"}]}, {"smiles": "CCCc1c(O)c(O)c(C(=O)O)c2cc(Cc3ccccc3)c(C)cc12", "values": [{"measurement": "IC50", "setting": "[4]", "result": 39.5, "unit": "µM"}, {"measurement": "IC50", "setting": "[5]", "result": 0.9, "unit": "µM"}, {"measurement": "IC50", "setting": "[6]", "result": 3.5, "unit": "µM"}, {"measurement": "IC50", "setting": "[7]", "result": 0.14, "unit": "µM"}]}, {"smiles": "O=C(Nc1ccccc1)c1nnn(-c2ccnc3cc(Cl)ccc23)c1-c1ccccc1", "values": [{"measurement": "IC50", "setting": "[8]", "result": 100, "unit": "µM"}]}, {"smiles": "O=C(CSc1ccccc1)Nc1cccc2ccccc12", "values": [{"measurement": "IC50", "setting": "[4]", "result": 79.6, "unit": "µM"}]}, {"smiles": "CCC(C)n1ncn(-c2ccc(N3CCN(c4ccc(OCC5COC(Cn6cncn6)(c6ccc(Cl)cc6Cl)O5)cc4)CC3)cc2)c1=O", "note": "(stereo not drawn) [ITRACONAZOLE]", "values": [{"measurement": "IC50", "setting": "[2]", "result": 9.3, "unit": "µM"}]}, {"smiles": "Cc1cc2c(C(C)C)c(O)c(O)c(C=O)c2c(O)c1-c1c(C)cc2c(C(C)C)c(O)c(O)c(C=O)c2c1O", "note": "[GOSSYPOL]", "values": [{"measurement": "IC50", "setting": "[4]", "result": 11.8, "unit": "µM"}, {"measurement": "IC50", "setting": "[5]", "result": 0.1, "unit": "µM"}, {"measurement": "IC50", "setting": "[6]", "result": 0.7, "unit": "µM"}]}, {"smiles": "COc1ccc(CNC(=O)C2=CC(=O)c3c(O)cc(OCCc4ccc(NC(=O)C(=O)O)c(C)c4)cc3C2)cc1", "values": [{"measurement": "IC50", "setting": "[7]", "result": 1.75, "unit": "µM"}, {"measurement": "IC50", "setting": "[3]", "result": 2.66, "unit": "µM"}]}]}
